Experiment [1] relates to S. aureus ATCC 29213 (MSSA). Briefly: Antibiotic susceptibility test (broth microdilution MIC). It counts as cell-based, Staphylococcus aureus. As to conditions: Staphylococcus aureus, read-out: Minimal inhibitory concentration. The protocol: (§1) Antimicrobial susceptibility testing was performed by broth microdilution in cation-adjusted Mueller–Hinton broth (CAMHB) according to the CLSI guidelines. Overnight culture was suspended in CAMHB, and the OD625 was measured using an Ultrospec 6300 pro spectrophotometer (GE Healthcare). The culture suspension was diluted to 0.01 of the OD625, and 5 μL of it was inoculated into test medium containing the test chemical. Then incubation was performed at 35°C for 16 to 20 hours. The final inoculum size corresponded to ca. 5 x 10^4 CFU per well, which corresponded to ca. 5 x 10^5 CFU/mL. The minimum inhibitory concentration (MIC) endpoint was defined as the lowest concentration of the test chemical that inhibited bacterial growth as detected by the unaided eye.

The subject of another experiment is E. faecium SR7917 (VRE). The experiment is described as above. It is filed as cell-based. As to conditions: Enterococcus faecium, VRE, read-out: Minimal inhibitory concentration. As for the experimental part:
as §1

The subject of a further experiment is S. aureus SR3637 (MRSA). Described as above. As to conditions: Staphylococcus aureus, MRSA, read-out: Minimal inhibitory concentration. It counts as cell-based. As for the experimental part: as §1
A further experiment relates to P. aeruginosa ATCC 27853. The description is as above. It is filed as cell-based. As to conditions: Pseudomonas aeruginosa, ATCC27853, read-out: Minimal inhibitory concentration. The protocol: as §1
The next experiment relates to K. pneumoniae ATCC 13883. Described as above. It is filed as cell-based. As to conditions: Klebsiella pneumoniae, ATCC13883, read-out: Minimal inhibitory concentration. The protocol:
as §1

In another experiment the test system is H. influenzae ATCC 10211. The experiment is described as above. It counts as cell-based. As to conditions: Haemophilus influenzae, ATCC10211, read-out: Minimal inhibitory concentration. As for the experimental part:
as §1

The subject of another experiment is S. pneumoniae Type I. The experiment is described as above. It is filed as cell-based. As to conditions: Streptococcus pneumoniae, read-out: Minimal inhibitory concentration. As for the experimental part:
as §1

The test system of a further experiment is E. faecalis ATCC 29212. The experiment is described as above. It is filed as cell-based. As to conditions: Enterococcus faecalis, ATCC29212, read-out: Minimal inhibitory concentration. As for the experimental part:
as §1

Another experiment relates to E. coli ATCC 25922. Described as above. It is filed as cell-based. As to conditions: Escherichia coli, ATCC25922, read-out: Minimal inhibitory concentration. The protocol: as §1
For a further experiment, the system named is A. baumannii ATCC 19606. The experiment is described as above. It counts as cell-based. As to conditions: Acinetobacter baumannii, ATCC19606, read-out: Minimal inhibitory concentration. The protocol:
as §1

In another experiment the test system is E. faecium ATCC 19434. The description is as above. It counts as cell-based. As to conditions: Enterococcus faecium, ATCC19434, read-out: Minimal inhibitory concentration. The protocol:
as §1

Another experiment relates to E. faecalis SR7914 (VRE). The description is as above. It counts as cell-based. As to conditions: Enterococcus faecalis, VRE, read-out: Minimal inhibitory concentration. As for the experimental part: as §1
Experiment [2] concerns panel of type strains of Gram-positive and Gram-negative bacterial pathogens. Briefly: Antibiotic susceptibility test, summary over the whole panel. It is filed as cell-based. As to conditions: MIC panel of Gram-positive and Gram-negative type strains. As for the experimental part:
as §1

Experiment [3] relates to S. aureus FtsZ (FtsZ^K175D_N-terminal-EGFP and FtsZ_C-terminal-mCherry). Briefly: FCCS screening for inhibition of GTP-dependent head-to-tail dimerization of fragmented FtsZ. It is filed as biochemical, Staphylococcus aureus. As to conditions: from FCCS binding ratio; chemical 20 or 100 μM, GTP 2 mM, 30 min; mean (SD), n = 3. As for the experimental part:
The purified FtsZ^K175D_N-terminal-EGFP and FtsZ_C-terminal-mCherry were mixed in 0.44–0.85 μM each in a buffer composed of 50 mM Tris-HCl [pH 8.0], 500 mM Na2SO4 and 5 mM MgCl2. Mixed samples were dispensed as 48.5 μL aliquots into a 384-well glass bottom microplate (Olympus) and a 0.5 μL aliquot of the chemical at a concentration of 2 or 10 mM was added to each well. The final concentration of the chemicals was 20 or 100 μM. After mixing, FCCS measurement was performed (premeasurement, data not shown). After premeasurement of FCCS, 1 μL of GTP (100 mM) was added to each well (final concentration: 2 mM). After mixing and 30 min incubation at room temperature, FCCS measurement was performed. Using samples purified on a different day, independent screening was performed 3 times.
The data acquired from FCCS were analyzed using ZEN software (Zeiss, Germany). The fluorescence autocorrelation functions from the green, G G (τ), and red channels, G R (τ), and the fluorescence cross-correlation functions, G C (τ) were calculated according to the normalized correlation function. GG(τ)=1+⟨δIG(t)⋅δIG(t+τ)⟩/⟨IG(t)⟩⋅⟨IG(t)⟩ (1) GR(τ)=1+⟨δIR(t)⋅δIR(t+τ)⟩/⟨IR(t)⟩⋅⟨IR(t)⟩ (2) GC(τ)=1+⟨δIG(t)⋅δIR(t+τ)⟩/⟨IG(t)⟩⋅⟨IR(t)⟩ (3) where τ denotes the time delay, I G is the fluorescent intensity of the green channel, and I R is the fluorescent intensity of the red channel. The acquired autocorrelations were fitted using a two-component model, and cross-correlation was fitted using a one-component model. G(τ)=1+1−Ftriplet+Ftripletexp(−τ/τtrplet)/N(1−Ftriplet)×((Ffast/1+τ/τfast)1/1+τ/s^2τfast+(Fslow/1+τ/τslow)1/1+τ/s^2τslow) (4) where F triplet is the average fraction of triplet state molecules (in the fitting of cross-correlation, assuming F triplet is 0), τ triplet is the triplet relaxation time, and F fast and F slow are the fractions of the fast and slow components, respectively. τ fast and τ slow are the diffusion times of the fast and slow components, respectively. In the fitting of G G (τ), τ fast was fixed in the range from 100 to 200 μs. In the fitting of G R (τ), τ fast was fixed in the range from 200 to 300 μs. N is the average number of fluorescent particles in the excitation-detection volume defined by radius w, z is half of the long axis of the confocal volume element, and s is the structural parameter representing the ratio s = z/w. The values of w i (i = G or R) are determined from the diffusion coefficients of the rhodamine 6G and Alexa Fluor 594 used as standard dyes, respectively.
The average number calculated from autocorrelation N G and N R and complex cross-correlated particles N C is given by NG=1/GG(0)−1 (5) NR=1/GR(0)−1 (6) NC=GC(0)−1/(GR(0)−1)⋅(GG(0)−1) (7)
The binding ratio (BR), which directly indicates the tendency of interaction between FtsZ^K175D_N-terminal-EGFP and FtsZ_C-terminal-mCherry, was defined by the following Eq (8). When a chemical has a higher inhibitory effect, BR should be lower. BR=NC/NG (8)
Moreover, inhibition % was calculated using the following Eq (9). The inhibition % should be higher when the chemical has a higher inhibitory effect. inhibition%=BRDMSO,GTP(+)−BRchemical,GTP(+)/BRDMSO,GTP(+)×100 (9) where BR DMSO,GTP(+) is the binding ratio in the presence of DMSO (vehicle) and GTP is the control value indicating no inhibition, BR chemical,GTP(+) is the binding ratio in the presence a chemical and GTP. Considering the background, Eq (9) can be shown as follows. inhibition%=(BRDMSO,GTP(+)−BRbackground)−(BRchemical,GTP(+)−BRbackground)/BRDMSO,GTP(+)−BRbackground×100=BRDMSO,GTP(+)−BRchemical,GTP(+)/BRDMSO,GTP(+)−BRbackground×100 (10) where BR background is the binding ratio of the background obtained in the absence of GTP.

≈ marks a conversion by molar mass, not a printed value. Entries after “also recorded” stand apart in the source; their conditions may differ.

As for `COCCN(CCOC)P1(=O)C=C(c2ccccc2)SC(c2ccccc2)=C1` [Chemical #2], the MIC in experiment [1] is 8 µg/mL (≈ 19.3 µM); in the experiment with E. faecium SR7917 (VRE), > 64 µg/mL; with S. aureus SR3637 (MRSA), 8 µg/mL (≈ 19.3 µM); in the experiment on P. aeruginosa ATCC 27853, > 64 µg/mL; with K. pneumoniae ATCC 13883, > 64 µg/mL; in the experiment with H. influenzae ATCC 10211 it was > 64 µg/mL. In addition, the MIC with S. pneumoniae Type I was 64 µg/mL (≈ 154 µM); in the experiment on E. faecalis ATCC 29212, 32 µg/mL (≈ 77 µM); in the experiment on E. coli ATCC 25922, > 64 µg/mL; with A. baumannii ATCC 19606 it was > 64 µg/mL; with E. faecium ATCC 19434 it was > 64 µg/mL; with E. faecalis SR7914 (VRE), 32 µg/mL (≈ 77 µM). Moreover, the “antibacterial activity (in words)” value in experiment [2] is “inhibited the growth of Staphylococcus spp. and Enterococcus spp; also recorded: no activity against other Gram-positive species or any of the Gram-negative pathogens tested”. The inhibition % in [3] is recorded as 69.0 (2.4) %.

For the origin of these results see paper PMC4496089, “Screening for FtsZ Dimerization Inhibitors Using Fluorescence Cross-Correlation Spectroscopy and Surface Resonance Plasmon Analysis” (PLoS ONE, 2015).
